Patent US20230003716A1, “METHODS AND APPARATUSES FOR PATIENT-DERIVED MICROORGANOSPHERES” (Xilis, Inc., priority 2020, published 2023)
Where two headings read alike, the source gives them in different places.

Columns and labels:
[1] = tested on: PDX240 cells (colorectal cancer patient derived xenograft); assay: drug response curves, traditional (bulk) organoids versus Micro-Organospheres, PDX240; format: cell-based, human; settings: cell viabilities after 3 days of treatment
Text: In some variations, the Micro-Organospheres may be formed from cell lines grown as part of a Patient Derived Xenograft (PDX). For example, FIGS. 28A-28D illustrate Micro-Organospheres formed from cultured PDX240 cells. PDX240 cells are a Patient Derived Xenograft (PDX) tumor cell line (numbered 240 based on patient source) that were human tumors grown in immunodeficient mice (PDX) to form in vivo tumors. The xenograft tissue was extracted dissociated, and used to form Micro-Organospheres as described above. In this example a single cell was included in each Micro-Organospheres as it was formed. […] With progressive time in culture, at least some of the Micro-Organospheres show the cells dividing and forming structures.
(§1) Organoids were formed from Patient Derived Xenograft cells (including the PDX240 cells described above and a second PDX cell line, PDX19187) and were compared with Micro-Organospheres formed using the same cells. The organoids were formed using conventional techniques in which a large mass of […] in a well or dish was seeded with cells and cultured until growth was confirmed. Micro-Organospheres were generated from the traditional organoids.
(§2) Both traditional (“bulk”) organoids and the Micro-Organospheres were then treated with the same drugs (e.g., Oxaliplatin or SN38) and cell viabilities were measured after 3 days of treatment.

[2] = tested on: Patient-Derived Micro-Organospheres (tumor biopsy); assay: drug effect screen on Patient-Derived Micro-Organospheres from a patient tumor biopsy; format: cell-based, human; settings: for percent survival of the Micro-Organospheres in the presence of the drug: Example 3, FIGS. 23B-23C, predicts drug resistance
Text: The Patient-Derived Micro-Organospheres described herein may be used in a variety of different assays, and in particular may be used to determine drug formulation effects, including toxicity, on normal and/or abnormal (e.g., cancerous) tissue. For example, drug screening may include applying Micro-Organospheres into all or some wells of multi-well (e.g., a 96-well) plate. Alternatively custom plates may be used (e.g., a 10,000 micro-well array may be formed of a 100×100 wells). The Micro-Organospheres (e.g., gel droplets) may be applied into, or in some variations onto the multiple microwell arrays and incubated with culture medium. The Micro-Organospheres may be cultured over the course of 3-5 days. In some variations, on day 5, the wells (e.g., micro-reactors) may then be dosed with drug compounds, e.g., based on a set of FDA-approved anticancer drugs, to examine the effects of the drug panel. For example, the drugs texted may be based on the National Cancer Institute (Division of Cancer Treatment and Diagnosis (11)) screen, consisting of 147 agents intended to enable cancer research, drug discovery and combination drug studies. On Day 7, the Micro-Organospheres may be imaged via standard fluorescent microscopy and ranked based on drug response.
In this example, the screening assay may be automated. This may enable repeatable and automated workflow, which may increase the number of drugs screened from a few to hundreds. FIGS. 17A-17E illustrate one example of this workflow. In FIG. 17A, a tumor biopsy is taken and a plurality (e.g., >10,000) Micro-Organospheres are formed as described above (in FIG. 17A the junction region forming the Micro-Organospheres is illustrated).
In a similar set of experiments, Micro-Organospheres were generated from biopsy material (FIG. 23A), and a drug effect screen was performed using the resulting Micro-Organospheres. […] Thus, the Micro-Organospheres correlated strongly with patient response to the standard of care drugs. […]

patient tumor = assay: actual response of the patient's tumor to drug treatment; format: in vivo, human; settings: for patient response to treatment: Example 3, treated with both Oxaliplatin and Irinotecan, after 6 months of treatment
traditional cell line = assay: traditional (2D) tumor cell line drug assay; format: cell-based; settings: FIG. 22A; all dose ranges examined; predicts drug resistance
Text: As mentioned above, the Patient-Derived Micro-Organospheres and methods of using them to screen for drug compositions may be used to accurately predict the response of a patient tumor to one or more drug therapies. […] For example, in FIG. 22A-22D, the Micro-Organospheres, but not a cell line, was able to correlate with patient response.

[3] = tested on: PDX19187 cells (colorectal cancer); format: cell-based, human; settings: cell viabilities after 3 days of treatment
Protocol: as §1, §2

| SMILES | drug response curve (cell viability), bulk organoids compared with Micro-Organospheres [1] | percent survival of the Micro-Organospheres in the presence of the drug [2] | patient response to treatment (patient tumor) | other results |
| --- | --- | --- | --- | --- |
| O=c1[nH]cc(F)c(=O)[nH]1 [5-FU, Fluorouracil] | comparable responses | – | – | – |
| CCc1c2c(nc3ccc(OC(=O)N4CCC(N5CCCCC5)CC4)cc13)-c1cc3c(c(=O)n1C2)COC(=O)[C@]3(O)CC [Irinotecan] | – | lack of effect | no response | – |
| O=C1[O][Pt]2([NH][C@@H]3CCCC[C@H]3[NH]2)[O]C1=O [Oxaliplatin] | – | no change in the percent survival | no response | cell survival of tumor Micro-Organospheres ([2]; Example 2, FIG. 22B, predicts drug sensitivity): significant decreases in cell survival; drug effect on traditional cell line (traditional cell line): no effect; tumor response of the patient to treatment (patient tumor; Example 2, FIGS. 22C (before) and 22D (post treatment)): responded to treatment; drug response curve (cell viability), bulk organoids compared with Micro-Organospheres ([3]; listed as Oxalipalatin): comparable response |
| CCc1c2c(nc3ccc(O)cc13)-c1cc3c(c(=O)n1C2)COC(=O)[C@]3(O)CC [SN38, 7-Ethyl-10-hydroxy-camptothecin] | comparable responses | – | – | drug response curve (cell viability), bulk organoids compared with Micro-Organospheres [3]: comparable responses |
